Values joined by “and” are separate entries in the source; they are usually repeats but may differ in a detail not shown here. Equal entries are not always repeated. Where two headings read alike, the source gives them in different places.
Assays:
mRORγ = molecular target: T1, mRORγ (Mus musculus, UniProt P51450); experiment: Transcriptional assay, Gal4-mRORγ with luciferase reporter in CHO cells; assay type: cell-based
T1 construct: expressed in transfected cells; host or cells: CHO cells, transient transfection
T1 sequence (P51450 with tags, fused parts or gaps): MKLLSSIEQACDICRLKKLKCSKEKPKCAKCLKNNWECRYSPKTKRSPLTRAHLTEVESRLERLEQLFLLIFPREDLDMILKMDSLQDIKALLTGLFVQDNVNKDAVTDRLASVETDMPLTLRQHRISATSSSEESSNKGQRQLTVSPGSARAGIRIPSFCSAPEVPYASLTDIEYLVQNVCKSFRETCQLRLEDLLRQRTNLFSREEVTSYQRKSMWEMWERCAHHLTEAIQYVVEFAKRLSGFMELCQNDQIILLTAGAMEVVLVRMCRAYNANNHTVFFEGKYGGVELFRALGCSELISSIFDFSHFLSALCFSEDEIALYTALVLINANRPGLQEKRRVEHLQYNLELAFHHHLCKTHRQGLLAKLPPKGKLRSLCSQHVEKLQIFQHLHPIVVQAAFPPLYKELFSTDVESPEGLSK
Protocol: The complete Gal4-mRORγ nucleotide sequence is shown below:
(§1) A firefly luciferase reporter gene for Gal4 DBD hybrid receptors, such as Gal4-RORγ, contains five copies of the Gal4 17-mer response element in its promoter and the coding sequence for firefly luciferase (pG5-luc, Promega). CHO (Chinese Hamster Ovary) cells were cultured in Ham's F12 medium supplemented with 10% fetal calf serum (Gemini Biologicals), 10 μg/ml penicillin and streptomycin, and were maintained in a humidified 37° C. incubator (Thermo Electron, Steri-Cycle) with 5% CO2. 24 hours before transfection, cells were plated in T175 flasks (5×10^6 cells/flask) or T75 flasks (1.7×10^6 cells/flask). Transient transfection of CHO cells was performed using TransIT-CHO reagents (Minis, Madison, Wis.) with a mixing ratio of 2:6:1 between plasmid DNA (in μg), TransIT-CHO (in μl) and CHO-mojo (in μl).
(§2) Plates are maintained at 37° C. in a humidified atmosphere with 7% CO2 overnight. Four (4) hours after cell seeding, compounds dissolved in DMSO at 10 mM were added to cells at final concentrations of 20 micromolar (μM) to 20 nanomolar (nM) in 0.2% DMSO in triplicate plates. Approximately 40 hours later, cytotoxicity in the assay well was characterized by addition of the dye resazurin (O'Brien, Wilson et al. 2000) to a final concentration of 3 μM. […] Percent viability was determined as 2 hour fluorescence, minus background at t=0 hours, normalized to DMSO controls. For detection of luciferase activity, media was removed from plates after the measurement of resazurin conversion, and SteadyLite luciferase reagent (Perkin-Elmer) was added (30 μl/well). Luminescence is detected with a Victor 2-V plate reader (Perkin-Elmer) and normalized to luciferase activity of DMSO control wells alone.

mRORγ LBD = molecular target: T2, mRORγ LBD (Mus musculus, UniProt P51450); experiment: Biochemical assay, coregulatory peptide recruitment to GST-RORγ LBD (FRET)
T2 construct: made in house; host or cells: Sf9 insect cells, baculovirus; cleared lysate used directly
T2 sequence (P51450 251-516): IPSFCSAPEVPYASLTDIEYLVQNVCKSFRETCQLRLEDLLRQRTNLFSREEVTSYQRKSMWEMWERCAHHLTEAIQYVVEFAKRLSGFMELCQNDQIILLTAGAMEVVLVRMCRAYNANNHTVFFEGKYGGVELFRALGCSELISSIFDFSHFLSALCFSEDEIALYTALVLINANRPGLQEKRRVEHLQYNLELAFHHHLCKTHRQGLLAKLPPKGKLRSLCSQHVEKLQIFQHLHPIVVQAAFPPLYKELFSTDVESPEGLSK
Text: GST-RORγ was generated by subcloning the RORγ-LBD into pET-41a, a vector which expresses GST fusion proteins in bacteria.
The cloning steps for GST-RORγ were as follows. The mRORγ LBD was excised from Gal4-mRORγ (see above for cloning steps) at BamHI and HindIII sites of Sequence 1 and cloned into the corresponding sites of pET-41a(+) (EMD Biosciences, San Diego, Calif.). A GST-mRORγ fragment was then excised from pET-41a(+) at XbaI and XhoI sites and cloned into a pcDNA3.1vector (Invitrogen, Carlsbad, Calif.) restricted at NheI and XhoI sites. Plasmid GST-mRORγ-pcDNA3.1 was used as a PCR template to generate a GST-mRORγ fragment that was later cloned into pENTR/D-TOPO vector (Invitrogen, Carlsbad, Calif.) by standard cloning techniques recommended by the manufacturer of the vector. The nucleotide sequence of GST-mRORγ is shown below:
For baculoviral expression of RORγ, the cDNA fragment of GST-RORγ— LBD, was subcloned from pET-41a into the pENTR/D-TOPO vector using a commercially-available kit (BaculoDirect, Invitrogen). Briefly, GST-RORγ carried by pENTR/D-TOPO was transfected into mono-layer Sf9 cells (8×10^5/well in 6-well plates) by Cellfectin (Invitrogen). Sf9 cells were incubated at 27° C. in a non-humidified incubator for 72 hours. Cell media was collected as P1 viral stock and used to further infect Sf9 cells to generate P2 and P3 virus. […] A plaque assay was performed to determine the titer of P3 virus and to isolate single plaques. P4 virus was generated from a single plaque and propagated on a larger scale.
Adherent SF9 cells were infected with baculovirus carrying GST-RORγ and were cultured for 72 hours. Sf9 cell were then subject to a brief sonication in a lysis buffer (20 mM phosphate, pH 6.8, 50 mM KCl, 50 mM NaCl, 0.5 mM EDTA, 50% glycerol, 0.001% NP-40 and 1 mM DTT) and centrifuged at 3000 rpm for 15 minutes. […] Cleared cell lysate was stored at −70° C. and is directly utilized in the coregulatory peptide recruitment assay.
The labeled probes anti-GST-APC and SA-RPE were purchased from Prozyme (San Leandro, Calif.). Compounds were added directly from a DMSO solution to a final concentration of 1-2% DMSO. Fluorescence was measured on a Wallac Victor 2 V plate reader equipped with a 670/40 nm filter (Omega Optical, Brattleboro, Vt.) for APC emission (Channel A) and a 600/25 bandpass filter for monitoring the RPE emission (Channel B).

[1] = molecular target: T3, mLXRα (Liver X receptor alpha) (Mus musculus, UniProt Q9Z0Y9); experiment: Transcriptional assay of LXRα (Gal4-LXRα hybrid); assay type: cell-based
T3 construct: 172-455; expressed in transfected cells; host or cells: CHO cells, transient transfection
T3 sequence (Q9Z0Y9 172-445 limits assumed): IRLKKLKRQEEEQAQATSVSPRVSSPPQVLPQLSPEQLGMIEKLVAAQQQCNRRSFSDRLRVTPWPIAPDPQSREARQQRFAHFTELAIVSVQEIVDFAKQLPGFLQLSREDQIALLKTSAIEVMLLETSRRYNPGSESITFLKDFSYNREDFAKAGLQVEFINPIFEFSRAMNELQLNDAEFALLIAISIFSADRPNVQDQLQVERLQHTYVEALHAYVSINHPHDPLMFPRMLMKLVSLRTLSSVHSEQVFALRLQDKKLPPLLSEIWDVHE
Protocol: as §1, §2
A transcriptional assay for LXRα, using a Gal4-LXRα hybrid, was implemented in order to compare RORγ ligand potencies. In addition to LXRα, transcriptional assays for a number of other major nuclear receptors were developed.

[2] = Table 4A, medians of two or more assays, unit inferred, read-out: EC50 Transcriptional
[3] = read-out: EC50 in the transcriptional assay for RORγ
[4] = Table 4A, peptide K1, no agonist present, medians of two or more assays, unit inferred, read-out: EC50 Biochemical
[5] = Table 6, read-out: Potency (EC50) at mLXRα

In the case of `CC(=O)O[C@H]1CC[C@@]2(C)C(CC[C@]3(C)C2C(=O)C=C2C4[C@@H](C)[C@H](C)CC[C@]4(C(=O)O)CC[C@]23C)C1(C)C` (stereo in doubt) [OR-13571, 10-Acetoxy-1,2,6a,6b,9,9,12a-heptamethyl-13-oxo-1,3,4,5,6,6a,6b,7,8,8a,9,10,11,12,12a,12b,13,14b-octadecahydro-2H-picene-4a-carboxylic acid], the EC50 (mRORγ; [2]) is reported as 0.27 µM, the EC50 (mRORγ; [3]) is reported as under 1 µM and the EC50 (mRORγ LBD; [4]) is reported as 1.2 µM. It also gave an EC50 [1, 5] of over 10000 nM.
In the case of `O=S(=O)(c1ccccc1)N(CC(F)(F)F)c1ccc(C(O)(C(F)(F)F)C(F)(F)F)cc1` [Compound T0901317, N-(2,2,2-Trifluoro-ethyl)-N-[4-(2,2,2-trifluoro-1-hydroxy-1-trifluoromethyl-ethyl)-phenyl]-benzenesulfonamide, reference compound], the Emax [1] is reported as 100%, the EC50 [1, 5] is reported as 100 to 1000 nM and the EC50 ([1]; Table 7, no unit printed for this column (b114 gives 1.5 μM for OR-1050), read-out: Transcriptional Assay of LXRα EC50) is reported as 140 nM. For the same compound, the “Efficacy at mLXRα” value ([1]; activity of standard ligand at 20 μM) was 120X.
`C[C@@H]1CC[C@@]2(OC1)O[C@H]1C[C@H]3[C@@H]4CC[C@H]5C[C@@H](O)CC[C@]5(C)[C@H]4C[C@@H](O)[C@]3(C)[C@H]1[C@@H]2C` [OR-885, 5α,20α, 22α, 25D-SPIROSTAN-3β, 12β-DIOL] gave an EC50 (mRORγ; Table 3, steroidal antagonists, read-out: Assay EC50 in micromolar transcriptional) of 0.2 µM, an EC50 (mRORγ; [3]) of under 1 µM and an EC50 (mRORγ LBD) of 2.5 µM. For the same compound, the EC50 [1] was over 10000 nM.
With `CCN(c1ccc(C(O)(C(F)(F)F)C(F)(F)F)cc1)S(=O)(=O)c1ccc([N+](=O)[O-])cc1` [OR-1050, N-Ethyl-4-nitro-N-[4-(2,2,2-trifluoro-1-hydroxy-1-trifluoromethyl-ethyl)-phenyl]-benzenesulfonamide] the EC50 (mRORγ; Table 1, antagonists, inhibition of basal Gal4-mRORγ transcription in CHO cells, read-out: Assay EC50 in micromolar at mRORγ Transcriptional) was 0.26 µM, the EC50 (mRORγ; Table 7, taken from Table 1, read-out: Assay EC50 in micromolar at mRORγ Transcriptional) was 0.26 µM and the EC50 (mRORγ; [3]) was < 1 µM and 0.3 µM. It also gave an EC50 (mRORγ LBD; Table 1, mRORγ and peptide K1, read-out: Assay EC50 in micromolar at mRORγ Biochemical) of 0.9 µM, an EC50 (mRORγ LBD; Table 7, taken from Table 1 (peptide K1), read-out: Assay EC50 in micromolar at mRORγ Biochemical) of 0.9 µM and an Emax [1] of over 80%. The “potency in repression of RORγ transcription relative to induction of LXR transcription” value [1] was “approximately 5 fold”, the EC50 [1, 5] was 1000 to 10000 nM and the “specificity for RORγ versus LXRα” value ([1]; comparison of transcriptional assays for RORγ and LXRα (Table 7)) was “more specific for RORγ than LXRα”. For the same compound, the EC50 ([1]; read-out: EC50 at LXRα in transcriptional assays) was 1500 nM.
Work on `COc1c(C=NNc2nc(N3CCCCC3)nc(N3CCCCC3)n2)cccc1[N+](=O)[O-]` [OR-2161, N-(4,6-Di-piperidin-1-yl-[1,3,5]triazin-2-yl)-N′-(2-methoxy-3-nitro-benzylidene)-hydrazine] yielded an EC50 (mRORγ; [2]) of 0.33 µM, an EC50 (mRORγ LBD; [4]) of 4.5 µM and an EC50 [1, 5] of over 10000 nM.
`COC(C)CCC(C)C1CCC2C3CC(O)C4CC(O)CCC4(C)C3CCC12C` (centres unmarked) [OR-12872, 17-(4-Methoxy-1-methyl-pentyl)-10,13-dimethyl-hexadecahydro-cyclopenta[a]phenanthrene-3,6-diol] was tested, and the EC50 (mRORγ; Table 2, agonists, antagonist OR-376 (1.5 μM) added to reduce basal transcriptional activity, read-out: EC50 in micromolar at mRORγ Transcriptional) was 0.44 µM, the EC50 (mRORγ LBD; Table 2, agonists, biotinylated peptide K, 50% of estimated maximum FRET signal, read-out: EC50 in micromolar at mRORγ Biochemical) was 0.052 µM and the EC50 (mRORγ LBD; agonist, read-out: potency in the biochemical assay) was under 0.1 µM. For the same compound, the EC50 [1, 5] was over 10000 nM.
With `CCn1c(CNc2ccc(Cl)cc2)nnc1SCC(=O)Nc1cccc2ccccc12` [OR-133008, 2-{5-[(4-Chloro-phenylamino)-methyl]-4-ethyl-4H-[1,2,4]triazol-3-ylsulfanyl}-N-naphthalen-1-yl-acetamide] the EC50 (mRORγ; [2]) was 1.46 µM, the EC50 (mRORγ LBD; [4]) was 1.61 µM and the EC50 [1, 5] was over 10000 nM.
